Test results as given in patent publication US8324390B2, “Tetrazole-substituted anthranilamides as pesticides” (Bayer CropScience AG, priority 2008, dated 2012).
Like-named read-outs stand apart in the source and are kept apart here.

Assays:
[1] = tested on: Boophilus microplus; experiment: Boophilus microplus test (BOOPMI injection); format: in vivo; conditions: Rhipicephalus microplus, read-out: effect in % (no fertile eggs laid)
Procedure: (§1) Solvent: dimethyl sulphoxide
The solution of active compound is injected into the abdomen (Boophilus microplus), and the animals are transferred into dishes and kept in a climatised room. The activity is assessed by […] of fertile eggs.
100% means that none of the ticks has laid any fertile eggs.

[2] = log P determination by HPLC (EEC Directive 79/831 Annex V.A8); format: physicochemical
Procedure: The measurements were carried out using an Agilent 1100 LC system with a 50*4.6 Zorbax Eclipse C18 1.8 μm column (oven temperature 55° C., flow rate 2.0 ml/min).
The following mobile phases were used:
Mobile phase A: acetonitrile+1000 μl of formic acid/l
Mobile phase B: Millipore water+900 μl of formic acid/l

[3] = tested on: green peach aphid (Myzus persicae); experiment: Myzus test (MYZUPE spray treatment); format: in vivo; conditions: Myzus persicae, in Brassica rapa, foliar, read-out: effect in % (aphids killed)
From the text: Solvent: 78 parts by weight of acetone
(§2) Solvent: 78.0 parts by weight of acetone

[4] = tested on: Lucilia cuprina larvae; experiment: Lucilia cuprina test (LUCICU); format: in vivo; conditions: read-out: kill in % (larvae killed)
Procedure: as §1
Vessels containing horse meat treated with the active compound preparation of the desired concentration are populated with Lucilia cuprina larvae.
(§3) After the desired period of time, the kill in % is determined.

[5] = tested on: caterpillars of the armyworm (Spodoptera frugiperda); experiment: Spodoptera frugiperda test (SPODFR spray treatment); format: in vivo; conditions: Spodoptera frugiperda, foliar, read-out: effect in % (caterpillars killed)
From the text: as §2

[6] = tested on: larvae of the mustard beetle (Phaedon cochleariae); experiment: Phaedon test (PHAECO spray treatment); conditions: Phaedon cochleariae, in Brassica rapa, foliar, read-out: effect in % (beetle larvae killed)
[7] = tested on: adult Musca domestica; experiment: Musca domestica test (MUSCDO); format: in vivo; conditions: treated sponge, read-out: kill in % (flies killed)
Procedure: as §1
Vessels containing a sponge treated with the active compound preparation of the desired concentration are populated with adult Musca domestica.
as §3

[8] = 20 μg/animal, injection into the abdomen

Compound | pest or weed control at 0.02 mg [1, 8] [%] | chromatographic logP ([2]; log P) | pest or weed control at 100 g/ha [3] [%] | pest or weed control at 100 ppm ([4]; in Equus caballus) [%] | pest or weed control at 100 g/ha ([5]; in Zea mays) [%] | pest or weed control at 100 g/ha [6] [%] | pest or weed control at 100 ppm [7] [%] | pest or weed control at 0.02 mg [1] [%] | chromatographic logP ([2]; by HPLC according to EEC Directive 79/831 Annex V.A8, read-out: log P) | chromatographic logP ([2]; reversed-phase HPLC, Zorbax Eclipse C18 column, by HPLC according to EEC Directive 79/831 Annex V.A8, read-out: log P) | pest or weed control at 100 ppm ([4]; 100 ppm, treated horse meat) [%] | pest or weed control at 100 g/ha ([5]; application rate 100 g/ha, maize leaf discs) [%]
Cc1cc(F)cc(C(=O)NC(C)C)c1NC(=O)c1cc(Cn2nnc(C(F)F)n2)nn1-c1ncccc1Cl [Example 295] | ≥ 80 | 2.64 | ≥ 80 | ≥ 80 | ≥ 80 | ≥ 80 | – | – | – | – | – | –
Cc1cc(F)cc(C(=O)NC2CC2)c1NC(=O)c1cc(Cn2nnc(C(F)(F)C(F)(F)F)n2)nn1-c1ncccc1Cl [Example 220] | ≥ 80 | 3.3 | ≥ 80 | ≥ 80 | ≥ 80 | ≥ 80 | – | – | – | – | – | –
Cc1cc(C#N)cc(C(N)=O)c1NC(=O)c1cc(Cn2nnc(C(F)(F)C(F)(F)F)n2)nn1-c1ncccc1Cl [Example 137] | – | 2.83 | – | – | ≥ 80 | ≥ 80 | ≥ 80 | – | – | – | – | –
Cc1cc(Cl)cc(C(=O)NCC#N)c1NC(=O)c1cc(Cn2nnc(C(F)(F)C(F)(F)F)n2)nn1-c1ncccc1Cl [Example 133] | – | 3.32 | – | – | ≥ 80 | ≥ 80 | ≥ 80 | – | – | – | – | –
O=C(NC1CC1)c1cc(Cl)cc(Cl)c1NC(=O)c1cc(Cn2nnc(C(F)(F)C(F)(F)F)n2)nn1-c1ncccc1Cl [Example 151] | – | 3.57 | – | – | ≥ 80 | ≥ 80 | ≥ 80 | – | – | – | – | –
Cc1cc(C#N)cc(C(=O)NC(C)C)c1NC(=O)c1cc(Cn2nnc(C(F)(F)C(F)(F)C(F)(F)F)n2)nn1-c1ncccc1Cl [Example 6] | – | – | – | ≥ 80 | ≥ 80 | ≥ 80 | – | ≥ 80 | 3.82 | – | – | –
CNC(=O)c1cc(C)cc(C)c1NC(=O)c1cc(Cn2nnnc2C(F)(F)F)nn1-c1ncccc1Cl [Example 178] | – | 2.48 | ≥ 80 | – | ≥ 80 | ≥ 80 | ≥ 80 | – | – | – | – | –
Cc1cc(Br)cc(C(=O)NC(C)C2CC2)c1NC(=O)c1cc(Cn2nnc(C(F)(F)C(F)(F)F)n2)nn1-c1ncccc1Cl (stereo not shown) [Example 144] | – | 4.29 | – | – | ≥ 80 | ≥ 80 | ≥ 80 | – | – | – | – | –
Cc1cc(Cl)cc(C(=O)NC(C)C)c1NC(=O)c1cc(Cn2nnnc2C(F)(F)F)nn1-c1ncccc1Cl [Example 162] | – | 3.12 | ≥ 80 | – | ≥ 80 | ≥ 80 | ≥ 80 | – | – | – | – | –
Cc1cc(Br)cc(C(=O)NC2CC2)c1NC(=O)c1cc(Cn2nnc(C(F)(F)F)n2)nn1-c1ncccc1C(F)(F)F [Example 229] | ≥ 80 | – | – | – | – | ≥ 80 | – | – | – | 3.52 | ≥ 80 | ≥ 80
Cc1cc(C#N)cc(C(=O)NC(C)(C)C)c1NC(=O)c1cc(Cn2nnc(C(F)(F)C(F)(F)F)n2)nn1-c1ncccc1Cl [Example 136] | – | 3.86 | ≥ 80 | – | ≥ 80 | ≥ 80 | ≥ 80 | – | – | – | – | –
Cc1cc(Cl)cc(C(N)=O)c1NC(=O)c1cc(Cn2nnc(C(F)F)n2)nn1-c1ncccc1Cl [Example 304] | – | 2.32 | ≥ 80 | – | ≥ 80 | ≥ 80 | – | – | – | – | – | –
C#CCNC(=O)c1cc(C#N)cc(C)c1NC(=O)c1cc(Cn2nnc(C(F)(F)F)n2)nn1-c1ncccc1Cl [Example 96] | – | 2.9 | ≥ 80 | – | ≥ 80 | ≥ 80 | – | – | – | – | – | –
